Laboratory results from patent publication US20250299772A1, “METHOD FOR GENERATION OF CHEMICAL DERIVATIVES AGAINST TARGET PROTEIN TO BUILD AI DRUG PLATFORM” (SYNTEKABIO, INC., priority 2024, published 2025).

Target: protein A (a kinase)
Assay: Inhibition of protein A kinase activity (33P-ATP peptide phosphorylation, filter, scintillation counting)
Assay type: biochemical
Settings: for IC50: Table 2, 10 μM [gamma-33P]-ATP, 10 μM peptide substrate, 40 minutes at room temperature; for pIC50 (experimental): Table 3, given with negative sign
Protocol: The hit compound derivatives synthesized as real compounds through Example 3 were evaluated for ability to inhibit the activity of protein A (a kinase).
Specifically, […] of protein A was incubated along with 8 mM MOPS (pH 7.0), 0.2 mM EDTA, 10 mM magnesium acetate, 10 μM [gamma-33P]-ATP, and 10 μM […], which is a phosphorylation target peptide. After incubation at room temperature for 40 minutes, the reaction was terminated by adding phosphoric acid to a final concentration of 0.5%. The reaction mixture was spotted onto a filter, then washed four times with 0.425% phosphoric acid for 4 minutes each. After washing once with methanol, the sample was dried and measured for radioactivity (scintillation counting) to assess phosphorylation (i.e., […](p)EDEEE peptide detection).

| IC50 [nM] | pIC50 (experimental) | Compound |
| --- | --- | --- |
| 30 | 7.52 | CC#CC(=O)Nc1cccc(-c2cc(NC(=O)c3cc4cc(OC)ccc4o3)[nH]n2)c1 [Compound D0069] |
| 13 | 7.89 | C#CC(=O)Nc1cccc(-c2cc(NC(=O)c3cc4nccnc4s3)[nH]n2)c1 [Compound D0101] |
| 4 | 8.4 | C#CC(=O)Nc1cccc(-c2cc(NC(=O)c3cc4c(s3)CCOC4)[nH]n2)c1 [Compound D0157] |
| 19 | 7.72 | CC#CC(=O)Nc1cccc(-c2cc(NC(=O)c3cc4c(s3)CCOC4)[nH]n2)c1 [Compound D1008] |
| 31 | 7.51 | CC#CC(=O)Nc1cccc(-c2cc(NC(=O)c3cc4c(s3)CCNC4)[nH]n2)c1 [Compound D1010] |
| 8 | 8.1 | CC#CC(=O)Nc1cccc(-c2cc(NC(=O)c3cc4c(s3)CC(=O)NC4)[nH]n2)c1 [Compound D1011] |

The remaining lines, values behind:

| Compound | IC50 [nM] | pIC50 (experimental) |
| --- | --- | --- |
| O=C(Nc1cc(-c2cccc(NS(=O)(=O)N3CCOCC3)c2)n[nH]1)c1cc2nccnc2s1 [Compound D0025] | 62 | 7.21 |
| C#CC(=O)Nc1cccc(-c2cc(NC(=O)c3ccc4nonc4c3)[nH]n2)c1 [Compound D0054] | 26 | 7.58 |
| CC(C)(C)C(=O)Nc1cccc(-c2cc(NC(=O)c3nc4cccnc4s3)[nH]n2)c1 [Compound D0065] | 119 | 6.92 |
| O=C(Nc1cc(-c2cccc(NS(=O)(=O)N3CCOCC3)c2)n[nH]1)c1cccc2ncsc12 [Compound D0083] | 129 | 6.89 |
| C#CC(=O)Nc1cccc(-c2cc(NC(=O)c3cc4ccc(O)cc4o3)[nH]n2)c1 [Compound D0135] | 63 | 7.2 |
| C#CC(=O)Nc1cccc(-c2cc(NC(=O)c3cc4ncc(O)nc4s3)[nH]n2)c1 [Compound D0137] | 40 | 7.4 |
| C#CC(=O)Nc1cccc(-c2cc(NC(=O)c3cc4ccc(O)cc4o3)[nH]n2)c1 [Compound D0139] | 22 | 7.66 |
| C#CC(=O)Nc1cccc(-c2cc(NC(=O)c3cc4ncc(C(=O)O)nc4s3)[nH]n2)c1 [DM009] | 7 | 8.15 |
| C#CC(=O)Nc1cccc(-c2cc(NC(=O)c3cc4ncc(C(N)=O)nc4s3)[nH]n2)c1 [DM010] | 10 | 8 |
